This is an account of results in patent US20180169242A1, “PHARMACEUTICAL COMBINATION FOR CANCER TREATMENT AND THE THERAPEUTIC USE THEREOF” (Shiner Pharm Corp., priority 2016, published 2018).

This test relates to Lewis lung carcinoma cells. As to the kind of experiment: Local tumor growth (tumor volume) in Lewis lung carcinoma animal model. Format: in vivo, C57BL/6 mice. Conditions: metformin 200 mg/kg/day, fluvastatin 80 mg/kg/day. The protocol: Lewis lung carcinoma (LLC) model was established.
The cancer inhibiting effect of metformin and statin was examined. After the mice were sacrificed, tumor volume on the right thigh of the mice was measured to deteiiiiine local tumor growth.

As to `CN(C)C(=N)N=C(N)N` [metformin], the “therapeutic effect on tumor volume compared with the sham group” value (no irradiation, day 7 to day 11, tumor volume on right thigh at day 21) was “did not exhibit any therapeutic effect”. Also, the “local tumor growth / tumor volume when combined with radiotherapy” value (with 40 Gy irradiation in two 20 Gy fractions (day 8, day 10), compared with RT alone, RT+M and RT+S, day 21) is listed as “neither combining radiotherapy with metformin alone or with statin alone could suppress local tumor growth”.
